Source: publication PMC12013189, “Phospho-regulated tethering of focal adhesion kinase to vinculin links force transduction to focal adhesion signaling” (Cell Communication and Signaling : CCS, 2025)

Key:
FAT-H23 and Vin-T = assay: svAUC peak integration, FAT-H23+LD2/4+Vin-T; assay type: binding, human; settings: 30 µM FAT-H23 + 10 µM LD2/4 + 30 µM Vin-T
Method: (§1) For svAUC experiments, FAT and Vin-T proteins at 30 µM were incubated with 10 µM LD2/4 peptide in 20 mM Tris pH 7.5, 200 mM NaCl, 5% Glycerol and 1 mM TCEP. svAUC was performed at 20 °C at 48,000 rpm (Vin-T + LD1 + LD2, Fig. S2) or 58,000 rpm (FAT + LD2/4 + Vin-T; Fig. 3) in a XL-I analytical ultracentrifuge (Beckman-Coulter Inc.) equipped with both UV-VIS absorbance and Raleigh interference detection systems, using an An-50Ti rotor, and Epon-charcoal standard double-sector centerpieces (optical pathlength 12 mm or 4 mm for measurements at 100 µM shown in Fig. S2). Sedimentation profiles were recorded at 280 nm. Differential sedimentation coefficient distributions were calculated by least-squares boundary modelling of sedimentation velocity data using the continuous distribution c(s) Lamm equation model as implemented by SEDFIT [46]. These s values were corrected to standard conditions (water, 20 °C, and infinite dilution) using the program SEDNTERP [32] to get the corresponding standard s values (s20,w).

FAT-WT = assay: svAUC peak integration, FAT-WT+LD2/4; assay type: binding, human
Method: as §1

FAT-H23 = assay: svAUC peak integration, FAT-H23+LD2/4; assay type: binding, human; settings: 30 µM FAT-H23 + 10 µM LD2/4
Method: as §1

[1] = tested on: FAT-H14-23 (I936A, K955A, R962A, I998A, H1025A, K1032A); assay: Fluorescence anisotropy binding to FAT-H14-23 mutant; design: species or system human; settings: both sites mutated
From the text: Expression plasmids for FAT (hFAK904-1052 WT and mutants H14, H23 and H14-23), Vin-FL (hVinculin1-1066) and Vin-T (hVinculin891-1066) were ordered from GenScript in the pET28(+) vector, adding a TEV cleavable N-terminal 6xHis tag to the expressed proteins. Mutant FAT-H14 contains the mutations I936A, H1025A, K1032A; FAT-H23 contains the mutations K955A, R962A, I998A and FAT-14-23 contains the combined mutations I936A, K955A, R962A, I998A, H1025A, K1032A. All plasmids were introduced into E.coli strain BL21(DE3) for expression. Cells were grown in LB media, induced with 1 mM IPTG at an OD (600 nm) of 0.6 and grown over night at 20 °C. […]
(§2) Binding curves were determined in a total of 20 µl in black 384 well plates, by titrating protein concentrations (typically up to 50 µM) at a fixed concentration of 25 nM FITC labelled LD peptides (Apeptide Co. Ltd) in 20 mM Tris pH7.5, 150 mM NaCl, 1mM TCEP. Anisotropy measurements were preformed at 22 °C on a Spark® Multimode microplate reader (Tecan) with polarizers, at an excitation wavelength of 485 nm and an emission wavelength of 535 nm (20 nm bandwidth). KD values were extracted by fitting a one-site binding model using the GraphPad Prism software, using the equation: Y = Bmax*X/(KD + X), where Y is the measured anisotropy, X the protein concentration and Bmax the maximal anisotropy value at binding saturation.

Vin-T = assay: svAUC peak integration, Vin-T+LD2/4; assay type: binding, human; settings: 30 µM Vin-T + 10 µM LD2/4
Method: as §1

[2] = tested on: GST-Vin-T and His-FAT-H14; assay: GST-pulldown of His-FAT with GST-Vin-T and LD2/4; assay type: binding, human; settings: 30 µM GST-Vin-T, 10 µM LD2/4, 30 µM His-FAT, western blot anti-His
Method: 30 µM GST-Vin-T, 10 µM LD2/4 and 30 µM His-FAT proteins were incubated with glutathione sepharose beads for 1 h, centrifuged for 1 min at […] and washed 3x with 20 mM Tris pH 7.5, 150 mM NaCl, 0.1% Nonidet P40. Proteins co-sedimented with beads were resuspended in SDS Laemmli buffer, heated to 96 °C for 5 min and subjected to SDS-PAGE and western blotting. His-FAT proteins (WT or mutants) were detected using a primary mouse anti-His antibody (Proteintech) and a secondary HRP conjugated goat anti-mouse antibody (Merck).

FAT-WT and Vin-T = assay: svAUC peak integration, FAT-WT+LD2/4+Vin-T; assay type: binding, human
Method: as §1

FAT-H14 and Vin-T = assay: svAUC peak integration, FAT-H14+LD2/4+Vin-T; assay type: binding, human; settings: 30 µM FAT-H14 + 10 µM LD2/4 + 30 µM Vin-T
Method: as §1

[3] = molecular target: T1, FAT domain of FAK (hFAK904-1052 WT) (Homo sapiens, UniProt Q05397); assay: Fluorescence anisotropy binding of FITC LD peptides to FAT-WT; settings: versus single LD motifs
T1 construct: Expression plasmids for FAT (hFAK904-1052 WT and mutants H14, H23 and H14-23); 6xHis (TEV cleavable) (N, cleaved yes); made in house; host or cells: E. coli BL21(DE3)
T1 sequence (Q05397 904-1052): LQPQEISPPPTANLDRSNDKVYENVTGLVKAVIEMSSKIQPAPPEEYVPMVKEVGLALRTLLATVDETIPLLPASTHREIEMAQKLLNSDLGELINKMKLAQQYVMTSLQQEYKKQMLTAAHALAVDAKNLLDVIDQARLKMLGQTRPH
From the text: Expression plasmids for FAT (hFAK904-1052 WT and mutants H14, H23 and H14-23), Vin-FL (hVinculin1-1066) and Vin-T (hVinculin891-1066) were ordered from GenScript in the pET28(+) vector, adding a TEV cleavable N-terminal 6xHis tag to the expressed proteins. Mutant FAT-H14 contains the mutations I936A, H1025A, K1032A; FAT-H23 contains the mutations K955A, R962A, I998A and FAT-14-23 contains the combined mutations I936A, K955A, R962A, I998A, H1025A, K1032A. All plasmids were introduced into E.coli strain BL21(DE3) for expression. Cells were grown in LB media, induced with 1 mM IPTG at an OD (600 nm) of 0.6 and grown over night at 20 °C. Cells were pelleted at 6000 rpm and resuspended in 20 mM Tris pH8, 200 mM NaCl, 5% Glycerol, 10 mM imidazole, 2mM TCEP, 1mM PMSF supplemented with cOmplete protein inhibitor cocktail (Roche). Cells were lysed by sonication and insoluble components removed by centrifugation at 40 K for 1 h at 4 °C. Soluble lysates were cleared through 0.45 μm filters and loaded onto His-Trap affinity columns (Cytiva), washed with step gradients up to 30 mM imidazole and eluted with a gradient up to 500 mM imidazole. Peak-fractions were digested over night with TEV protease (molar ratio ~ 1: 20) at 4 °C. Proteins were diluted to 50 mM NaCl and loaded onto a Source 15Q column, washed with 20 mM Tris pH8, 50 mM NaCl, 5% Glycerol, 1mM TCEP and eluted with a gradient up to 1 M NaCl. Peak fractions were mixed with 1 ml of Ni-NTA beads to remove TEV and uncleaved protein, adding 10 mM imidazole to prevent non-specific binding. The flow-through was concentrated, loaded onto a Superdex200 16/60 column and eluted in 20 mM Tris pH8, 200 mM NaCl, 5% Glycerol, 2mM TCEP. Peak fractions were concentrated, aliquots flash frozen in LN2 and stored at -80 °C.
as §2

FAT-H14 = assay: svAUC peak integration, FAT-H14+LD2/4; assay type: binding, human; settings: 30 µM FAT-H14 + 10 µM LD2/4
Method: as §1

[4] = 30 µM FAT-WT + 10 µM LD2/4, 20 °C, 280 nm
[5] = 30 µM FAT-WT + 10 µM LD2/4 + 30 µM Vin-T

For “SNLSELDRLLLELNAVQHNGSGSGGSGGSGGSGGSGGSGGSGGSGGSATRELDELMASLSD [LD2/4]”, the “c(Peak 1) [~ 1 s(S)]” value (FAT-H23 and Vin-T) was 0.08, the “c(Peak 2) [1-2 s(S)]” value (FAT-H23 and Vin-T) was 0.80 and the “c(total)” value (FAT-H23 and Vin-T) was 1.18. The “c(Peak 3) [ >2 s(S)]” value (FAT-H23 and Vin-T; ~2.3 S peak) was 0.30 and ≈ 0.30, the “c(total)” value (FAT-WT; 30 µM FAT-WT + 10 µM LD2/4) was 0.58 and the “c(Peak 1) [~ 1 s(S)]” value (FAT-WT; [4]) was 0.06. The “c(Peak 2) [1-2 s(S)]” value (FAT-WT; [4]) was 0.37, the “c(Peak 3) [ >2 s(S)]” value (FAT-WT; 30 µM FAT-WT + 10 µM LD2/4, ~2.4 S peak, absence of Vin-T) was 0.15 and the “c(Peak 1) [~ 1 s(S)]” value (FAT-H23) was 0.11. The “c(Peak 2) [1-2 s(S)]” value (FAT-H23) was 0.45, the “c(Peak 3) [ >2 s(S)]” value (FAT-H23) was 0.03 and the “c(total)” value (FAT-H23) was 0.59. For the same sequence, the “binding to FAT-H14-23, in words” value [1] was “no significant binding”, the “c(Peak 1) [~ 1 s(S)]” value (Vin-T) was 0.18 and the “c(Peak 2) [1-2 s(S)]” value (Vin-T) was 0.59. For the same sequence, the “c(total)” value (Vin-T) was 0.77, the “His-FAT-H14 pulled down with GST-Vin-T” value [2] was “only pulled down in the presence of the LD2/4 peptide” and the “c(Peak 2) [1-2 s(S)]” value (FAT-WT and Vin-T; [5]) was 0.68. For the same sequence, the “c(total)” value (FAT-WT and Vin-T; [5]) was 1.08, the “c(Peak 3) [ >2 s(S)]” value (FAT-WT and Vin-T; 30 µM FAT-WT + 10 µM LD2/4 + 30 µM Vin-T, ~2.4 S peak) was 0.40 and the “amount (c) of tripartite FAT:LD2/4:Vin-T complex” value (FAT-WT and Vin-T; difference of 2.4 S peak in presence and absence of Vin-T, FAT-WT) was “≈ 0.25”. For the same sequence, the “c(Peak 2) [1-2 s(S)]” value (FAT-H14 and Vin-T) was 0.57, the “c(total)” value (FAT-H14 and Vin-T) was 1.09 and the “c(Peak 3) [ >2 s(S)]” value (FAT-H14 and Vin-T; 2.4 S peak) was 0.52. For the same sequence, the “increase of affinity for FAT by presence of both LD motifs” value [3] was “approximately 15 fold”, the “c(Peak 1) [~ 1 s(S)]” value (FAT-H14) was 0.11 and the “c(Peak 2) [1-2 s(S)]” value (FAT-H14) was 0.45. For the same sequence, the “c(Peak 3) [ >2 s(S)]” value (FAT-H14) was 0.05 and the “c(total)” value (FAT-H14) was 0.61.
